Experimental data taken from patent publication US20260317304A1, “TEAD INHIBITORS AND METHODS OF USE” (Sporos BioDiscovery, Inc., priority 2022, published 2026).
pEC50: −log10 of the molar value.

Experiments:
MSTO-211H cells = experiment: MSTO-211H proliferation and cell viability assay (CTG); type: cell-based; conditions: Homo sapiens, 144 hours
Description: MSTO-211H cells were trypsinised, counted and plated at 1500 cells/well in 200 μl of growth media in 96 well flat bottom tissue culture treated plates. The plated cells were incubated overnight at 37° C., 5% CO2 before being treated with compounds in triplicate for each assay point. 50 μl of the serially diluted compound was added to each well giving a final DMSO concentration of 0.5% per well and a total volume of 250 μl per well. The treated cells were incubated for 144 hours (6 days) at 37° C., 5% CO2. Following compound treatment, the remaining viable cells were detected using the Promega CellTiter-Glo 2.0 assay as follows: 150 μl of media was removed from each of the wells to be assayed and 100 μl of room temperature CellTiter-Glo 2.0 reagent was added. The plate was placed on an orbital shaker at 500 rpm at room temperature for 2 minutes, and then incubated without shaking for a further 10 minutes at room temperature. 150 μl of cell lysate was removed from each well and dispensed into a single well of a white opaque 96 well plate. Luminescence at 545 nm was read using a BMG CLARIOstar plate reader. The luminescent signal was directly proportional to number of viable cells, the percent of viable cells relative to the DMSO control was then calculated for each assay point. Percent viability relative to DMSO control was plotted against compound concentration and a curve fitted with non-linear regression in GraphPad Prism software. EC50 and absolute IC50 values were calculated using GraphPad Prism software as follows: For EC50 values a non-constrained four-parameter logistic curve fit was used (Sigmoidal, 4PL, X is concentration). For Absolute IC50 values the baseline was constrained to Y=0 and top at 100 (Absolute IC50, X is concentration). Area Under the Curve (AUC): Prism computes area-under-the-curve by the trapezoidal method. The analysis sees a fitted curve as simply a series of connected XY points. Prism simply computes the area under the “curve” defined by connecting the points by straight lines. The units of the AUC are the units of the Y axis times units of the X axis.
For EC50 data, the symbol “A” indicates a value of less than 0.2 μM; the symbol “B” indicates a value in the range of from 0.2 μM up to 1 μM; and the symbol “C” indicates a value of greater than 1 μM.

MSTO-211H xenograft = experiment: Mouse xenograft MSTO-211H tumors, study part 1; type: in vivo, BALB/c nude mice; conditions: PO; for Tumor size (mean ± SEM) / T/C / TGI: BID; for Tumor Volume (mean ± SEM): BID (Table 16)
From the text: This study evaluated the in vivo anti-tumor efficacy of test compounds in BALB/c nude mice for treatment of MSTO-211H xenograft of lung cancer.
• Species: Mus Musculus • Strain: BALB/c nude • Age: 6-8 weeks • Sex: female • Body weight: 18-22 g • Number of animals inoculated with tumor: 80 mice • Number of animals enrolled in the treatment: 36 mice • Number of unenrolled animals: 44 mice • Animal supplier: Beijing Vital River Biotechnology Experimental Animal Co. Ltd Certification number: 20170011010591
The MSTO-211H tumor cells were maintained in RPMI 1640 medium supplemented with 10% Fetal bovine serum and 1% Antibiotic-Antimycotic at 37° C. in an atmosphere of 5% CO2 in air. The tumor cells were routinely subcultured twice weekly by trypsin-EDTA. The cells growing in an exponential growth phase with 95% cell survival or above were harvested, and counted for tumor inoculation.
Each mouse was inoculated subcutaneously at the right flank with MSTO-211H tumor cells (5×10^6+50% matrigel/0.2 mL) for tumor development. Animals were marked with earrings with unique 6 significant figure number for identification. The treatments of part 1 were started on day 5 after cell inoculation when the average tumor volume reached 181 mm^3. The treatments of part 2 were started on day 16 after cell inoculation when the average tumor volume reached 254 mm^3. The treatments of part 3 were started on day 33 after cell inoculation when the average tumor volume reached 969 mm^3.
The major endpoint was to determine if the tumor growth could be delayed. Tumor volume was measured twice a week in two dimensions using a caliper, and the volume was expressed in mm^3 using the formula: V=0.5 a×b^2 where a and b are the long and short diameters of the tumor, respectively. The tumor size was then used for calculations of T/C value. The TGI value (in percent) or the T/C value (in percent) is an indication of antitumor effectiveness; T and C are the mean tumor volumes or tumor weights of the treated and control groups, respectively, on a given day.
TGI was calculated for each group using the formula: TGI (%)=[1−(Ti−T0)/(Vi−V0)]×100; Ti is the average tumor volume of a treatment group on a given day, T0 is the average tumor volume of the treatment group on the day of treatment start, Vi is the average tumor volume of the vehicle control group on the same day with Ti, and V0 is the average tumor volume of the vehicle group on the day of treatment start.
Relative T/C (%)=TRTV/CRTV×100 (RTV (%)=Vt/V0×100, Vt is the average tumor volume on a given day, V0 is the average tumor volume on the first day of treatment. TRTV is the RTV of a treatment group, and the CRTV is the RTV of the vehicle control group.)
The antitumor effectiveness of part 1 study was analyzed on PG-D31 when vehicle group reached 681 mm^3.
Summary statistics, including mean and the standard error of the mean (SEM), were provided for the tumor volume of each group at each time point.
Statistical analysis of difference in tumor volume among the groups was conducted on the data obtained at the end of the study.
One-tailed T test was performed to compare tumor volumes between two groups. All data are analyzed using GraphPad Prism 6.0. p<0.05 is considered to be statistically significant.

C=CC(=O)Nc1ccc(C)c(Oc2ccc(Cl)cc2)c1 [Compound 1-3, reference compound]
pEC50 (MSTO-211H cells): > 6.70

FC(F)(F)c1ccc(CN2CCC(C3CC(Br)=NO3)CC2)cc1 (centres unmarked) [Compound 1-2, reference compound]
pEC50 (MSTO-211H cells): > 6.70

Cn1cnc(-c2cc([C@@]3(C)CCNC3=O)ccc2Nc2ccc(C(F)(F)F)cc2)c1 (single isomer, unassigned) [Compound 5, 3-methyl-3-(3-(1-methyl-1H-imidazol-4-yl)-4-((4-(trifluoromethyl)phenyl)amino)phenyl)pyrrolidin-2-one]
pEC50 (MSTO-211H cells): > 6.70
Tumor size (mean ± SEM) (MSTO-211H xenograft; part 1, day 0, 12.5 mg/kg): 181 ± 11 mm^3
Tumor size (mean ± SEM) (MSTO-211H xenograft; part 1, day 3, 12.5 mg/kg): 241 ± 31 mm^3
Tumor size (mean ± SEM) (MSTO-211H xenograft; part 1, day 6, 12.5 mg/kg): 230 ± 30 mm^3
Tumor size (mean ± SEM) (MSTO-211H xenograft; part 1, day 10, 12.5 mg/kg): 151 ± 18 mm^3
Tumor size (mean ± SEM) (MSTO-211H xenograft; part 1, day 13, 12.5 mg/kg): 117 ± 10 mm^3
Tumor size (mean ± SEM) (MSTO-211H xenograft; part 1, day 17, 12.5 mg/kg): 63 ± 13 mm^3
Tumor size (mean ± SEM) (MSTO-211H xenograft; part 1, day 20, 12.5 mg/kg): 72 ± 15 mm^3
Tumor size (mean ± SEM) (MSTO-211H xenograft; part 1, day 23, 12.5 mg/kg): 64 ± 7 mm^3
Tumor size (mean ± SEM) (MSTO-211H xenograft; part 1, day 27, 12.5 mg/kg): 79 ± 13 mm^3
T/C (MSTO-211H xenograft; part 1, day 31, 12.5 mg/kg): 11.82%
TGI (MSTO-211H xenograft; part 1, day 31, 12.5 mg/kg): 120.17%
Tumor size (mean ± SEM) (MSTO-211H xenograft; part 1, day 31, 12.5 mg/kg): 81 ± 18 mm^3
Tumor Volume (mean ± SEM) (MSTO-211H xenograft; part 1, day 31, 12.5 mg/kg): 81 ± 18 mm^3

Cn1nnc(-c2cc([C@]3(C)CCNC3=O)ccc2Nc2ccc(C(F)(F)F)cc2)n1 (stereo in doubt) [Compound 20, 3-methyl-3-(3-(2-methyl-2H-tetrazol-5-yl)-4-((4-(trifluoromethyl)phenyl)amino)phenyl) pyrrolidin-2-one]
pEC50 (MSTO-211H cells): > 6.70
Tumor size (mean ± SEM) (MSTO-211H xenograft; part 1, day 0, 12.5 mg/kg): 181 ± 7 mm^3
Tumor size (mean ± SEM) (MSTO-211H xenograft; part 1, day 3, 12.5 mg/kg): 183 ± 26 mm^3
Tumor size (mean ± SEM) (MSTO-211H xenograft; part 1, day 6, 12.5 mg/kg): 188 ± 52 mm^3
Tumor size (mean ± SEM) (MSTO-211H xenograft; part 1, day 10, 12.5 mg/kg): 117 ± 44 mm^3
Tumor size (mean ± SEM) (MSTO-211H xenograft; part 1, day 13, 12.5 mg/kg): 92 ± 28 mm^3
Tumor size (mean ± SEM) (MSTO-211H xenograft; part 1, day 17, 12.5 mg/kg): 66 ± 10 mm^3
Tumor size (mean ± SEM) (MSTO-211H xenograft; part 1, day 20, 12.5 mg/kg): 60 ± 13 mm^3
Tumor size (mean ± SEM) (MSTO-211H xenograft; part 1, day 23, 12.5 mg/kg): 59 ± 16 mm^3
Tumor size (mean ± SEM) (MSTO-211H xenograft; part 1, day 27, 12.5 mg/kg): 75 ± 18 mm^3
T/C (MSTO-211H xenograft; part 1, day 31, 12.5 mg/kg): 8.81%
TGI (MSTO-211H xenograft; part 1, day 31, 12.5 mg/kg): 124.25%
Tumor size (mean ± SEM) (MSTO-211H xenograft; part 1, day 31, 12.5 mg/kg): 60 ± 11 mm^3
Tumor Volume (mean ± SEM) (MSTO-211H xenograft; part 1, day 31, 12.5 mg/kg): 60 ± 11 mm^3

Cn1cnc(-c2cc(C3(C)NC(=O)NC3=O)ccc2Nc2ccc(C(F)(F)F)cc2)c1 (single isomer, unassigned) [Compound 15, 5-methyl-5-(3-(1-methyl-1H-imidazol-4-yl)-4-((4-(trifluoromethyl)phenyl)amino)phenyl)imidazolidine-2,4-dione]
pEC50 (MSTO-211H cells): > 6.70
Tumor size (mean ± SEM) (MSTO-211H xenograft; part 1, day 0, 12.5 mg/kg): 181 ± 11 mm^3
Tumor size (mean ± SEM) (MSTO-211H xenograft; part 1, day 3, 12.5 mg/kg): 216 ± 27 mm^3
Tumor size (mean ± SEM) (MSTO-211H xenograft; part 1, day 6, 12.5 mg/kg): 175 ± 19 mm^3
Tumor size (mean ± SEM) (MSTO-211H xenograft; part 1, day 10, 12.5 mg/kg): 154 ± 5 mm^3
Tumor size (mean ± SEM) (MSTO-211H xenograft; part 1, day 13, 12.5 mg/kg): 111 ± 13 mm^3
Tumor size (mean ± SEM) (MSTO-211H xenograft; part 1, day 17, 12.5 mg/kg): 88 ± 12 mm^3
Tumor size (mean ± SEM) (MSTO-211H xenograft; part 1, day 20, 12.5 mg/kg): 105 ± 6 mm^3
Tumor size (mean ± SEM) (MSTO-211H xenograft; part 1, day 23, 12.5 mg/kg): 134 ± 10 mm^3
Tumor size (mean ± SEM) (MSTO-211H xenograft; part 1, day 27, 12.5 mg/kg): 166 ± 20 mm^3
T/C (MSTO-211H xenograft; part 1, day 31, 12.5 mg/kg): 23.57%
TGI (MSTO-211H xenograft; part 1, day 31, 12.5 mg/kg): 104.12%
Tumor size (mean ± SEM) (MSTO-211H xenograft; part 1, day 31, 12.5 mg/kg): 161 ± 12 mm^3
Tumor Volume (mean ± SEM) (MSTO-211H xenograft; part 1, day 31, 12.5 mg/kg): 161 ± 12 mm^3
